Laboratory results published in US10561612B2, “Powdered formulations of cromolyn sodium and ibuprofen” (AZTherapies, Inc., priority 2017, dated 2020).
Where two headings read alike, the source gives them in different places. Blank lines part the entries; values can stand above or below the compound they belong to.

How the values were obtained:
Assay type in all cases: physicochemical
[1] = Moisture content by simultaneous thermal analyzer (STA); settings: for % Moisture content / Enthalpy change: by STA
Protocol: (§1) Following micronization, Particle Size Distribution (PSD) analysis was performed by wet dispersion. […] FIGS. 8A and 8B illustrate the SEM imagery of micronized ibuprofen at a 10 μm scale for Batch 1 and Batch 2, respectively. FIGS. 9A and 9B illustrate the SEM imagery of micronized ibuprofen at a 2 μm scale for Batch 1 and Batch 2, respectively. FIGS. 10A and 10B illustrate the PXRD of micronized ibuprofen for Batch 1 and Batch 2, respectively. Table 7 contains the data for moisture content of micronized ibuprofen as determined by simultaneous thermal analyzer (STA), which tests both by DTA (Differential Temperature Analysis) and TG (Thermogravimetry). FIGS. 11A, 11B, and 11C illustrate the hygroscopicity as determined GVS for coarse ibuprofen (FIG. 11A), Batch 1 (FIG. 11B), and Batch 2 (FIG. 11C).

[2] = Stability study under accelerated degradation conditions, related substances; settings: 40° C. and 75% relative humidity
Protocol: A stability study was performed to determine the compatibility of the combined APIs under accelerated degradation conditions. Separate control samples of micronized cromolyn sodium (Sample A) and micronized ibuprofen (Sample B) were included in the study to be used as a comparator to the blend of Cromolyn/Ibuprofen (Sample C). The study was performed at 40° C. and 75% relative humidity. Measurements were taken at time 0, 1 month, 2 months, and 3 months.

[3] = Gravimetric vapor sorption (GVS); settings: for weight gain upon exposure to moisture (moisture adsorbed on the surface): adsorption-desorption isotherm
Protocol: (§2) Ibuprofen was characterized to determine the parameters necessary to administer a therapeutically effective amount using an inhalation delivery system. The methodology included particle size determination (PSD); powdered x-ray crystallization diffraction (PXRD); and gravimetric vapor sorption (GVS).
as §1

[4] = Solubility and dispersibility seen in PSD by wet dispersion
From the text: The micronization may be performed on coarse ibuprofen using an air-jet mill or similar apparatus, such as a grinder or a mill. Other methods to micronize the ibuprofen include milling, bashing, cutting, or crushing. For example, two batches were micronized with an air-jet mill using a feed gas pressure of about 45 psi and a grinding pressure of about 45 psi. One batch was micronized a second time under the same conditions. Optionally, the ibuprofen may be micronized more than once. After micronization, particle size distribution was performed on the micronized ibuprofen by wet dispersion.
as §1

[5] = Particle size determination (PSD) of coarse ibuprofen; settings: for D10 / D50 / D90: Effect of Dispersant
From the text: (§3) Coarse ibuprofen was characterized using PSD, PXRD, and GVS. […]
The average particle size determinations are illustrated in FIG. 5. The parameters and results were as follows: concentration 0.0406% Vol; span 1.493; uniformity 0.459; specific surface area 0.239 m^2/g; surface weighted mean […] 25.136 μm; and vol. weighted mean D[4,3] 62.020 μm.

[6] = Powdered x-ray diffraction (PXRD)
From the text: as §2, with “(GVS). The methods determined that coarse ibuprofen was crystalline and non-hygroscopic. The results are summarized in Example 3.” for “(GVS).”
as §3

[7] = average particle size determination, FIG. 5

% Moisture content [1]: 1.14%
Enthalpy change [1]: 94.4 J/g
Compound: CC(C)Cc1ccc(C(C)C(=O)O)cc1 (stereo not shown) [Batch 2, ibuprofen]

Individual Related Substances ≥ 0.5%, cromolyn sodium ([2]; 1 month): 0.11%
Total Impurities, cromolyn sodium ([2]; 1 month): 0.1%
Individual Related Substances ≥ 0.5%, cromolyn sodium ([2]; 2 months): 0.11%
Total Impurities, cromolyn sodium ([2]; 2 months): 0.1%
Individual Related Substances ≥ 0.5%, cromolyn sodium ([2]; 3 months): 0.11%
Total Impurities, cromolyn sodium ([2]; 3 months): 0.1%
Individual Related Substances ≥ 0.5%, cromolyn sodium ([2]; Initial T = 0): 0.11%
Total Impurities, cromolyn sodium ([2]; Initial T = 0): 0.1%
Compound: O=C(O)c1cc(=O)c2c(OCC(O)COc3cccc4oc(C(=O)O)cc(=O)c34)cccc2o1 [Sample A, cromolyn sodium]

weight gain upon exposure to moisture (moisture adsorbed on the surface) ([3]; listed as Micronize ibuprofen): ~3%
weight gain upon exposure to moisture (moisture adsorbed on the surface) ([3]; listed as Micronized ibuprofen): ~3%
Individual Related Substances ≥ 0.5%, RRT 0.93, ibuprofen ([2]; 1 month): 0.07%
Individual Related Substances ≥ 0.5%, RRT 1.11, ibuprofen ([2]; 1 month): 0.05%
Total Impurities, ibuprofen ([2]; 1 month): 0.1%
Individual Related Substances ≥ 0.5%, RRT 0.93, ibuprofen ([2]; 2 months): 0.07%
Individual Related Substances ≥ 0.5%, RRT 1.11, ibuprofen ([2]; 2 months): <LOQ
Total Impurities, ibuprofen ([2]; 2 months): 0.1%
Individual Related Substances ≥ 0.5%, RRT 0.93, ibuprofen ([2]; 3 months): 0.07%
Individual Related Substances ≥ 0.5%, RRT 1.11, ibuprofen ([2]; 3 months): <LOQ
Total Impurities, ibuprofen ([2]; 3 months): 0.1%
Individual Related Substances ≥ 0.5%, RRT 0.93, ibuprofen ([2]; Initial T = 0): 0.07%
Total Impurities, ibuprofen ([2]; Initial T = 0): 0.1%
dispersibility in water [4]: not dispersible in water
solubility in organic solvents [4]: highly soluble in organic solvents
Compound: CC(C)Cc1ccc(C(C)C(=O)O)cc1 (stereo not shown) [micronized ibuprofen, ibuprofen]
solubility in surfactant containing aqueous media [4]: soluble in different surfactants containing aqueous media even at low concentrations of the surfactant

% Moisture content [1]: 1.19%
Enthalpy change [1]: 120.5 J/g
Compound: CC(C)Cc1ccc(C(C)C(=O)O)cc1 (stereo not shown) [Batch 1, ibuprofen]

D10 ([5]; T (Day) 0): 22.586 μm
D50 ([5]; T (Day) 0): 57.693 μm
D90 ([5]; T (Day) 0): 108.743 μm
D10 ([5]; T (Day) 1): 22.401 μm
D50 ([5]; T (Day) 1): 57.611 μm
D90 ([5]; T (Day) 1): 108.724 μm
span [5, 7]: 1.493
specific surface area [5, 7]: 0.239 m^2/g
surface weighted mean D[2,3] [5, 7]: 25.136 μm
uniformity [5, 7]: 0.459
vol. weighted mean D[4,3] [5, 7]: 62.020 μm
hygroscopicity [3]: non-hygroscopic
weight gain upon exposure to moisture (moisture adsorbed on the surface) [3]: < 0.2%
weight gain upon exposure to moisture (moisture adsorbed on the surface) ([3]; listed as Ibuprofen): < 0.2%
weight gain upon exposure to moisture (moisture adsorbed on the surface) ([3]; listed as ibuprofen): < 0.2%
hygroscopicity ([3]; listed as Coarse ibuprofen): non-hydroscopic
hygroscopicity ([3]; listed as ibuprofen): non-hydroscopic
% Moisture content [1]: 0.20%
Enthalpy change [1]: 131.0 J/g
Inference (crystalline or amorphous) ([1]; from the enthalpy change): Crystalline
crystallinity [6]: crystalline
Compound: CC(C)Cc1ccc(C(C)C(=O)O)cc1 (stereo not shown) [coarse ibuprofen, ibuprofen]
